These results are taken from patent US8354512B2, “Ligand and metal complex” (National Chiao Tung University, priority 2009, dated 2013).

The target in one series is HSA (Homo sapiens, UniProt P02768). The settings on record: literature values; cited from earlier work.
Series [1] in a line: Kinetic stability in PBS containing Zn2+. The conditions noted are these: 2.5 mM complex, 2.5 mM ZnCl2, PBS pH 7.4, 37±0.1° C., three days, NMR 20 MHz. Also on record: unit not given here. The format is physicochemical. The method, then: Kinetic stability is evaluated by testing the stability of the metal complex in an environment containing a poisonous metal ion Zn^2+. The stability is defined as R1^p (t)/R1p (0), in which R1^P (t)=1/T1 (t), T1 is the relaxivity. The higher the R1^P (t)/R1p (0), the higher will be the stability.
2.5 mM of each of [Gd(Bz-CB-TTDA)]^2−−, [Gd(CB-TTDA)]^2− and [Gd(DTPA)]^2− was placed in a phosphate buffer saline (PBS, pH=7.4), followed by adding 2.5 mM of ZnCl2 to obtain a sample. The sample was subjected to reaction at 37±0.1° C. for three days (t=3), after which the relaxivity T1(t) of the sample was determined by using NMR (20 MHz).

For series [2] the following is noted: cited from earlier work.
The nature of series [3]: Water exchange rate and molecular rotational correlation time by 17O-NMR at 9.4 T. The class given is physicochemical. The conditions noted are these: 298 K. The source says: According to the disclosure of Chem. Rev., 1999, 99, 2293-2352, the relaxivity of the metal complex is affected by the hydration number q and the correlation time τc. The correlation time τc depends on three parameters: (1) molecular rotational correlation time (τR); (2) Electron longitudinal and transverse spin relaxation time (T1e, T2e); and (3) Water residence lifetime (τm) or Water exchange rate (kex), τm^−1=kex. Since Bz-CB-TTDA and CB-TTDA have the same hydration number, comparison between Bz-CB-TTDA and CB-TTDA in relaxivity can be determined by the aforesaid parameters, i.e., the higher the parameters, the higher will be the relaxivity.
Electron longitudinal and transverse spin relaxation time (T1e, T2e) of each test sample of the metal complexes was measured by using ^17O-NMR in a magnetic field of 9.4 T. The water exchange rate at 298 K (Kex^298) and the molecular rotational correlation time at 298 K (τR^298) of each test sample were determined by using three plots of “T1 versus temperature”, “T2 versus temperature” and “chemical shift versus temperature”.

The structures appear in SMILES notation. Like-named read-outs stand apart in the source and are kept apart here.

HSA, sequence (P02768 25-609): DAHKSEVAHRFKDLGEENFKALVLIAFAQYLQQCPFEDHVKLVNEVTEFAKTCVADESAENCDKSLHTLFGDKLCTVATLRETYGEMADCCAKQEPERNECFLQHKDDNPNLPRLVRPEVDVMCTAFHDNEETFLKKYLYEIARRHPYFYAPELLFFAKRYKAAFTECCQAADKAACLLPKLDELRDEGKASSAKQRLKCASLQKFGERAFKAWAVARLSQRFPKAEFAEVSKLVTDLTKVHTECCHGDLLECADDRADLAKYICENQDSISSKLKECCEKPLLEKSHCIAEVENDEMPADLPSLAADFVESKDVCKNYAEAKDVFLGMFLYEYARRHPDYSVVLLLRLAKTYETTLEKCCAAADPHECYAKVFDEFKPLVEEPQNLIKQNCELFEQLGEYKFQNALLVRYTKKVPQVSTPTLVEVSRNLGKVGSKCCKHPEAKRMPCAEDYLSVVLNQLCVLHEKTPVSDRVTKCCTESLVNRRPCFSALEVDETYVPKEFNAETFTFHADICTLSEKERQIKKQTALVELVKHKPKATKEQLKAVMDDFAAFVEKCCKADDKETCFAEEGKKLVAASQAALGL

As for `O=C(O)CN(CCN(CC(=O)O)CC(=O)O)CCN(CC(=O)O)C(COCc1ccccc1)C(=O)O` (stereo not drawn) [[Gd(BOPTA)]^2−], on HSA, the “γ1^b bound relaxivity” value was 33.0^a mM^−1s^−1.

As for `CCOc1ccc(C[C@@H](C(=O)O)N(CCN(CCN(CC(=O)O)CC(=O)O)CC(=O)O)CC(=O)O)cc1` [[Gd(S)-EOB-DTPA]^2−], on HSA, the “γ1^b bound relaxivity” value is 44.1^a mM^−1s^−1.

In the case of `O=C([O-])CN(CCN(CC(=O)[O-])CC(=O)[O-])CCN(CC(=O)[O-])CC(=O)[O-].[Gd+3]` [[Gd(DTPA)]^2−], the “R1^p (t)/R1^p (0)” value in series [1] is 49.79. Also, the γ1 relaxivity in series [2] (pH 7.6 ± 0.1, Am. J. Roentgenol., 1984, 142, 619-624) is on record as 3.89 ± 0.03^a mM^−1s^−1. Further, in series [3], the “kex^298 water exchange rate” value was 4.1 10^6 s^−1 and the “τR^298 molecular rotational correlation time” value came to 103 ps.

For the molecule `O=C([O-])CN(CCCN(CC(=O)[O-])CC(=O)[O-])CCN(CC(=O)[O-])CC(=O)[O-].[Gd+3]` [[Gd(TTDA)]^2−], the γ1 relaxivity in series [2] (pH 7.5 ± 0.1, Inorg. Chem., 2005, 44, 382) is 3.85 ± 0.03^a mM^−1s^−1. Moreover, in series [3], the “kex^298 water exchange rate” value is reported as 146 ± 17.0 10^6 s^−1 and the “τR^298 molecular rotational correlation time” value stood at 104 ± 12.0 ps.
